Data on seven molecules can be found in patent US4212939A, “Substrate solution for carboxylic ester hydrolase determination” (The University of Alabama, priority 1977, dated 1980).

The test system of assay [1] is porcine liver esterase. The assay is described as follows: Activation of ester hydrolase in the vinyl ester reagent system (ADH/NADH coupled, 340 nm). It is filed as biochemical. The conditions noted are these: for activation of porcine liver esterase by bile salt: vinyl omega-phenyl octanoate as substrate, sodium taurodeoxycholate zero to 25 mM, sodium cholate zero to 10 mM, sodium chenodeoxycholate zero to 15 mM. An excerpt: (§1) In accordance with the preferred embodiments of this invention, we prefer to carry out the analysis of carboxylic acid ester hydrolase by admixing an unknown, suspected of containing this enzyme with a reagent system wherein first a vinyl ester of a carboxylic acid is hydrolyzed by the enzyme into the carboxylic acid and unstable vinyl alcohol. As a second step, the vinyl alcohol isomerizes to acetaldehyde. This sequence of conversions is indicated diagrammatically as follows: [drawing 1] The acetaldehyde of reaction (2) may be detected by a variety of means known to the prior art. For example, enzymatic methods are illustrated below in reactions (3a) and (3b), and involve monitoring the disappearance (3a) or appearance (3b) of NADH by measuring its absorbance or fluorescence at suitable wavelengths. The velocity of reactions (3a) or (3b) may then be equated with reaction (1) when the components of the mixture are all in sufficient excess so that only the ester hydrolase activity is limiting. Chemical methods (3c) may include any nonenzymatic means for the quantitative analysis of acetaldehyde. [formula]
(§2) The range of concentrations of sodium deoxycholate (or its free acid) is from zero to about 25 mM, but the preferred range is about 15 to 21 mM for porcine pancreatic lipase, crude human pancreas extract, and lipase in human blood serum.
(2) Buffer Solution. While the method of preparation of the buffer solution is not critical, one method for forming it is as follows: Weigh into a one liter beaker 3.134 gm 1, 1, 3, 3-tetramethyl-1-phenoxy (polyethoxy) butane (n=polydisperse, average 9) and 12.912 gm 1, 1, 3, 3-tetramethyl-1-phenoxy(polyethoxy)n butane, 70% (n=polydisperse, average 30). Add about 800 ml of deionized or glass redistilled water and stir with a magnetic stirring bar until the detergents are dissolved. Add 9.534 gm sodium deoxycholate and continue stirring until dissolved. Then add 25.652 gm tetrasodium pyrophosphate (Na4 P2 O7.10 H2 O) and stir until the crystals dissolve. Add with stirring in approximately five equal portions a total of 231.51 gm of potassium chloride, allowing each portion to almost completely dissolve before adding the next. Stop the stirring when all of the KCl has dissolved. Add 1.15 gm bovine serum albumin by sprinkling on the liquid surface. When all of the BSA has dissolved, begin stirring again and add more water to bring the volume up to about 950 ml. Adjust the pH to 9.1 with dilute HCl solution. […] Quantitatively transfer the solution to a one liter volumetric flask and add water to the mark. […] After any endogenous acetaldehyde in the reagent has been reduced and the corresponding oxidation of NADH has slowed to the normal blank rate, the absorbance at 340 nm in a 1 cm light path will be approximately 1.5. […]

Assay [2] has as its target T1, porcine pancreatic lipase (Sus scrofa, UniProt P00591).
T1 sequence (P00591 1-450): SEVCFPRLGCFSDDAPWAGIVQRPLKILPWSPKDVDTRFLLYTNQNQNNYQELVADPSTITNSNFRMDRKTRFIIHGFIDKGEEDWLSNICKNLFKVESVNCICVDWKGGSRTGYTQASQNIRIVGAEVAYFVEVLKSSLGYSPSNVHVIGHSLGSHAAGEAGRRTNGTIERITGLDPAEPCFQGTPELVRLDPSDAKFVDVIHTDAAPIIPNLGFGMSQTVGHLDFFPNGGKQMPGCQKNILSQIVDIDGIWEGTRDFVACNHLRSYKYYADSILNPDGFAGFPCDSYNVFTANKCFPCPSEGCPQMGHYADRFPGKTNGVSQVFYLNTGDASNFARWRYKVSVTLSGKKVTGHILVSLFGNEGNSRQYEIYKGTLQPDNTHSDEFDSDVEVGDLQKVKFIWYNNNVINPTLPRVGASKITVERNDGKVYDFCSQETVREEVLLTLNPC
Described as above. As to conditions: for activation of porcine pancreatic lipase by bile salt: vinyl omega-phenyl octanoate as substrate, sodium taurodeoxycholate zero to 25 mM, sodium cholate zero to 10 mM, sodium chenodeoxycholate zero to 15 mM; for activation of porcine pancreatic lipase by quaternary ammonium compound: in the absence of bile salts. It is filed as biochemical.
Excerpt: as §1, §2
Activation of porcine pancreatic lipase and crude human pancreas extract can also be accomplished with various cationic alkyl and alkyl-aryl quaternary ammonium compounds such as cetyltrimethyl ammonium bromide (CTAB) and cetyldimethylbenzyl ammonium chloride (CDMBAC) in the absence of bile salts. The useful range of CTAB concentrations for activation of porcine pancreatic lipase is from about 4 to 12 mM, but most preferred is from 7 to 9 mM. The useful range of CDMBAC concentrations for activation of porcine pancreatic lipase is from about 2 to 9 mM, but most preferred is about 5 to 9 mM. When used together sodium deoxycholate (or its acid) and either CTAB or CDMBAC activate porcine pancreatic lipase about 10 fold over the activity without these components together. Sodium deoxycholate and CTAB are useful when used together in the ranges of zero to 25 mM and zero to 15 mM, respectively, but the preferred concentrations are 10 mM to 20 mM sodium deoxycholate and 4 mM to 10 mM CTAB. When deoxycholate and CDMBAC are used together for the activation of porcine pancreatic lipase the useful concentrations of deoxycholate are from zero to about 20 mM, but the preferred concentrations are 10 mM to 20 mM deoxycholate and 10 mM to 15 mM CDMBAC.
(2) Buffer Solution. While the method of preparation of the buffer solution is not critical, one method for forming it is as follows: Weigh into a one liter beaker 3.134 gm 1, 1, 3, 3-tetramethyl-1-phenoxy (polyethoxy) butane (n=polydisperse, average 9) and 12.912 gm 1, 1, 3, 3-tetramethyl-1-phenoxy(polyethoxy)n butane, 70% (n=polydisperse, average 30). Add about 800 ml of deionized or glass redistilled water and stir with a magnetic stirring bar until the detergents are dissolved. Add 9.534 gm sodium deoxycholate and continue stirring until dissolved. Then add 25.652 gm tetrasodium pyrophosphate (Na4 P2 O7.10 H2 O) and stir until the crystals dissolve. Add with stirring in approximately five equal portions a total of 231.51 gm of potassium chloride, allowing each portion to almost completely dissolve before adding the next. Stop the stirring when all of the KCl has dissolved. […]

In assay [3] the target is T1, porcine pancreatic lipase. The conditions noted are these: same conditions as glycerol trioleate; cited from earlier work.
Assay [4] deals with T2, crude human pancreas extract (human lipase) (Homo sapiens, UniProt P16233).
T2 construct: vinyl ester hydrolysis coupled to ADH/NADH
T2 sequence (P16233 17-465): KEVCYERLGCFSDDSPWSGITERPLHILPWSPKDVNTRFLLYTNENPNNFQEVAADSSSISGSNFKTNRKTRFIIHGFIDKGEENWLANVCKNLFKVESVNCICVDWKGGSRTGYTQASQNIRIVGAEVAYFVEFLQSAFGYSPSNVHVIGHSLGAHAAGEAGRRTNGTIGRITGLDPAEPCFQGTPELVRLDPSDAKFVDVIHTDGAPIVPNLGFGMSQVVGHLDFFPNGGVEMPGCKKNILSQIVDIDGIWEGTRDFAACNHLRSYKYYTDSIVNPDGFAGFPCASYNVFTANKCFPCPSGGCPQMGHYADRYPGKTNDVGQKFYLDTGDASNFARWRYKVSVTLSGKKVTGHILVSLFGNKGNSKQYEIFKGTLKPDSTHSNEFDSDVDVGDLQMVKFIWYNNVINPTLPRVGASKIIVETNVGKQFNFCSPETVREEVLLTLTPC
The assay is described as follows: Activation of ester hydrolase in the vinyl ester reagent system (ADH/NADH coupled, 340 nm). Type of assay: biochemical. The conditions noted are these: for activation of crude human pancreas extract by quaternary ammonium compound: in the absence of bile salts.
Excerpt: As a second step, the vinyl alcohol isomerizes to acetaldehyde. […] The acetaldehyde of reaction (2) may be detected by a variety of means known to the prior art. For example, enzymatic methods are illustrated below in reactions (3a) and (3b), and involve monitoring the disappearance (3a) or appearance (3b) of NADH by measuring its absorbance or fluorescence at suitable wavelengths. The velocity of reactions (3a) or (3b) may then be equated with reaction (1) when the components of the mixture are all in sufficient excess so that only the ester hydrolase activity is limiting. Chemical methods (3c) may include any nonenzymatic means for the quantitative analysis of acetaldehyde.
The useful range of CTAB concentrations for activation of porcine pancreatic lipase is from about 4 to 12 mM, but most preferred is from 7 to 9 mM. The useful range of CDMBAC concentrations for activation of porcine pancreatic lipase is from about 2 to 9 mM, but most preferred is about 5 to 9 mM. […] Sodium deoxycholate and CTAB are useful when used together in the ranges of zero to 25 mM and zero to 15 mM, respectively, but the preferred concentrations are 10 mM to 20 mM sodium deoxycholate and 4 mM to 10 mM CTAB. When deoxycholate and CDMBAC are used together for the activation of porcine pancreatic lipase the useful concentrations of deoxycholate are from zero to about 20 mM, but the preferred concentrations are 10 mM to 20 mM deoxycholate and 10 mM to 15 mM CDMBAC.
(2) Buffer Solution. While the method of preparation of the buffer solution is not critical, one method for forming it is as follows: Weigh into a one liter beaker 3.134 gm 1, 1, 3, 3-tetramethyl-1-phenoxy (polyethoxy) butane (n=polydisperse, average 9) and 12.912 gm 1, 1, 3, 3-tetramethyl-1-phenoxy(polyethoxy)n butane, 70% (n=polydisperse, average 30). Add about 800 ml of deionized or glass redistilled water and stir with a magnetic stirring bar until the detergents are dissolved. […] Quantitatively transfer the solution to a one liter volumetric flask and add water to the mark. […]

For `C[C@H](CCC(=O)O)[C@H]1CC[C@H]2[C@@H]3[C@H](O)C[C@@H]4C[C@H](O)CC[C@]4(C)[C@H]3CC[C@]12C` [sodium chenodeoxycholate], in assay [1], the “activation of porcine liver esterase by bile salt” value is on record as “slightly activate”. Moreover, the “activation of porcine pancreatic lipase by bile salt” value in assay [2] is on record as “slightly activate”.

As for `C=COC(=O)CCCCCCC/C=C\CCCCCCCC` [vinyl oleate], in assay [3], the “effectiveness as substrate relative to glycerol trioleate” value is 29.4%.

For the molecule `C[C@H](CCC(=O)O)[C@H]1CC[C@H]2[C@@H]3[C@H](O)C[C@@H]4C[C@H](O)CC[C@]4(C)[C@H]3C[C@H](O)[C@]12C` [sodium cholate], the “activation of porcine liver esterase by bile salt” value in assay [1] was “slightly activate”. In assay [2], the “activation of porcine pancreatic lipase by bile salt” value was “slightly activate”.

`CCCCCCCCCCCCCCCC[N+](C)(C)C.[Br-]` [CTAB, cetyltrimethyl ammonium bromide]: the “activation of crude human pancreas extract by quaternary ammonium compound” value in assay [4] is “Activation”. The “activation of porcine pancreatic lipase by quaternary ammonium compound” value in assay [2] was “Activation”.

Take `C[C@H](CCC(=O)NCCS(=O)(=O)O)[C@H]1CC[C@H]2[C@@H]3CC[C@@H]4C[C@H](O)CC[C@]4(C)[C@H]3C[C@H](O)[C@]12C` [Sodium taurodeoxycholate, sodium taurodeoxycholate]: in assay [1], the “activation of porcine liver esterase by bile salt” value was “slightly activate”. Further, in assay [2], the “activation of porcine pancreatic lipase by bile salt” value is given as “slightly activate”.

`CCCCCCCCCCCCCCCC[N+](C)(C)Cc1ccccc1.[Cl-]` [CDMBAC, cetyldimethylbenzyl ammonium chloride]: in assay [4], the “activation of crude human pancreas extract by quaternary ammonium compound” value is reported as “Activation”. Further, in assay [2], the “activation of porcine pancreatic lipase by quaternary ammonium compound” value is recorded as “Activation”.

As to `C[C@H](CCC(=O)O)[C@H]1CC[C@H]2[C@@H]3CC[C@@H]4C[C@H](O)CC[C@]4(C)[C@H]3C[C@H](O)[C@]12C` [sodium deoxycholate], in assay [4] (deoxycholate concentration about above 4 mM, in the absence of CDMBAC), the “activation of human lipase by deoxycholate alone compared with the combination with CDMBAC” value is listed as “activated to a much greater extent”. In addition, in assay [1] (concentrations up to about 25 mM), the “activation of porcine liver esterase by sodium deoxycholate” value is listed as “only slightly activated”.
